Columns and labels:
Experiment in all cases: relative viability (nuclei count vs DMSO), 5 days (fraction); higher = more cells survive
[1] = compound: COc1cc(-c2nn([C@H]3CC[C@H](N4CCN(C(C)=O)CC4)CC3)c3ncnc(N)c23)ccc1NC(=O)c1cc2ccccc2n1C + CS(=O)(=O)N1CCN(Cc2cc3nc(-c4cccc5[nH]ncc45)nc(N4CCOCC4)c3s2)CC1 [Pictilisib] (partner 1 µM)
In short: (§1)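 A single step with final 0.05% Triton X-100, 1% formaldehyde and 1 ug/ml Hoechst fixed the cells and stained nuclei 5 days after treatment. Lung cancer cell lines in 1536-well plates had been treated by pin tool the day after seeding with one drug alone or a fixed anchor-drug dose plus five library-drug doses (not always all listed) in √10 steps, and nuclei were counted on 4× images. Relative viability is the ratio of nuclei in treated wells to nuclei in vehicle wells, taken as the median of duplicate plates.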

[2] = compound: COc1cc(-c2nn([C@H]3CC[C@H](N4CCN(C(C)=O)CC4)CC3)c3ncnc(N)c23)ccc1NC(=O)c1cc2ccccc2n1C + CC(=O)Nc1cccc(-n2c(=O)n(C3CC3)c(=O)c3c(Nc4ccc(I)cc4F)n(C)c(=O)c(C)c32)c1 [Trametinib] (partner 0.02 µM)
In short: as §1

[3] = compound: COc1cc(-c2nn([C@H]3CC[C@H](N4CCN(C(C)=O)CC4)CC3)c3ncnc(N)c23)ccc1NC(=O)c1cc2ccccc2n1C + Cc1cc(Nc2cc(N3CCN(C)CC3)nc(Sc3ccc(NC(=O)C4CC4)cc3)n2)n[nH]1 [Tozasertib] (partner 0.1 µM)
In short: as §1

[4] = compound: COc1cc(-c2nn([C@H]3CC[C@H](N4CCN(C(C)=O)CC4)CC3)c3ncnc(N)c23)ccc1NC(=O)c1cc2ccccc2n1C + O=C(CCCCCCC(=O)Nc1ccccc1)NO [Vorinostat] (partner 1 µM)
In short: as §1

Midostaurin + Phenformin = compound: CO[C@@H]1[C@H](N(C)C(=O)c2ccccc2)C[C@H]2O[C@]1(C)n1c3ccccc3c3c4c(c5c6ccccc6n2c5c31)C(=O)NC4 [Midostaurin] + N=C(N)NC(=N)NCCc1ccccc1 [Phenformin] (partner 250 µM)
In short: as §1

| Cell Line | relative viability ([1]; first compound 0.0128 µM) | relative viability ([1]; first compound 0.04048 µM) | relative viability ([1]; first compound 0.128 µM) | relative viability ([1]; first compound 1.28 µM) | relative viability ([2]; first compound 0.0128 µM) | relative viability ([2]; first compound 0.04048 µM) | relative viability ([2]; first compound 0.128 µM) | relative viability ([2]; first compound 1.28 µM) | relative viability ([3]; first compound 0.0128 µM) | relative viability ([3]; first compound 0.04048 µM) | relative viability ([3]; first compound 0.128 µM) | relative viability ([3]; first compound 1.28 µM) | relative viability ([4]; first compound 0.0128 µM) | relative viability ([4]; first compound 0.04048 µM) | relative viability ([4]; first compound 0.128 µM) | relative viability ([4]; first compound 1.28 µM) | relative viability (Midostaurin + Phenformin; first compound 0.01 µM) | relative viability (Midostaurin + Phenformin; first compound 0.03162 µM) | relative viability (Midostaurin + Phenformin; first compound 0.1 µM) | relative viability (Midostaurin + Phenformin; first compound 0.3162 µM) |
| --- | --- | --- | --- | --- | --- | --- | --- | --- | --- | --- | --- | --- | --- | --- | --- | --- | --- | --- | --- | --- |
| LXF-289 | 0.827 | 0.586 | 0.775 | 0.509 | 0.78 | 0.468 | 0.692 | 0.811 | 0.219 | 0.217 | 0.17 | 0.0946 | 0.898 | 0.795 | 0.734 | 0.794 | 0.519 | 0.51 | 0.49 | 0.505 |
| NCI-H23 | 0.36 | 0.298 | 0.403 | 0.457 | 0.405 | 0.25 | 0.281 | 0.226 | 0.359 | 0.444 | 0.309 | 0.266 | 0.734 | 0.51 | 0.541 | 0.519 | 0.713 | 0.798 | 0.773 | 0.772 |
| NCI-H322M | 0.521 | 0.449 | 0.51 | 0.463 | 0.453 | 0.489 | 0.491 | 0.463 | 0.509 | 0.472 | 0.445 | 0.341 | 0.868 | 0.931 | 0.718 | 0.745 | 0.831 | 0.673 | 0.811 | 0.875 |
| NCI-H358 | 0.395 | 0.331 | 0.277 | 0.249 | 0.153 | 0.125 | 0.131 | 0.115 | 0.107 | 0.104 | 0.103 | 0.0932 | 0.706 | 0.672 | 0.523 | 0.646 | 0.404 | 0.331 | 0.371 | 0.353 |
| NCI-H441 | 0.551 | 0.43 | 0.602 | 0.421 | 0.438 | 0.463 | 0.407 | 0.336 | 0.743 | 0.734 | 0.565 | 0.578 | 0.968 | 0.958 | 0.847 | 0.849 | 0.914 | 0.773 | 0.747 | 0.768 |
| NCI-H460 | 0.164 | 0.314 | 0.345 | 0.368 | 0.111 | 0.0655 | 0.148 | 0.058 | 0.47 | 0.113 | 0.278 | 0.0922 | 0.735 | 0.983 | 0.642 | 0.709 | 0.492 | 0.507 | 0.561 | 0.534 |
| NCI-H520 | 0.293 | 0.337 | 0.247 | 0.216 | 0.606 | 0.354 | 0.55 | 0.361 | 0.378 | 0.432 | 0.412 | 0.31 | 0.738 | 0.652 | 0.6 | 0.543 | 0.572 | 0.471 | 0.756 | 0.634 |
| NCI-H596 | 0.412 | 0.451 | 0.356 | 0.44 | 0.915 | 0.8 | 0.88 | 0.554 | 0.972 | 1.17 | 0.872 | 0.541 | 0.779 | 0.703 | 0.629 | 0.611 | 0.898 | 0.963 | 0.816 | 0.986 |
| NCI-H647 | 0.41 | 0.456 | 0.257 | 0.28 | 0.543 | 0.265 | 0.333 | 0.169 | 0.219 | 0.262 | 0.194 | 0.141 | 0.422 | 0.698 | 0.606 | 0.421 | 0.533 | 0.603 | 0.473 | 0.433 |
| NCI-H650 | 0.944 | 0.96 | 0.944 | 0.866 | 0.993 | 0.501 | 1.15 | 0.879 | 0.663 | 0.747 | 0.735 | 0.732 | 0.633 | 0.709 | 0.443 | 0.517 | 0.403 | 0.413 | 0.437 | 0.322 |
| NCI-H661 | 0.39 | 0.344 | 0.392 | 0.254 | 0.474 | 0.469 | 0.557 | 0.506 | 0.362 | 0.381 | 0.346 | 0.34 | 0.761 | 0.971 | 0.819 | 1.01 | 0.279 | 0.286 | 0.261 | 0.311 |
| NCI-H727 | 0.355 |  | 0.401 | 0.301 | 0.415 |  | 0.37 | 0.341 | 0.65 |  | 0.581 | 0.477 | 1.35 |  | 1.22 | 1.25 | 0.545 | 0.437 | 0.665 | 0.538 |
| NCI-H838 | 0.403 | 0.397 | 0.38 | 0.338 | 0.5 | 0.479 | 0.506 | 0.403 | 0.287 | 0.289 | 0.322 | 0.209 | 0.783 | 0.763 | 0.742 | 0.685 | 0.704 | 0.551 | 0.397 | 0.274 |
| NCI-H1355 | 0.584 | 0.295 | 0.412 | 0.406 | 0.416 | 0.313 | 0.387 | 0.447 | 0.541 | 0.551 | 0.497 | 0.28 | 0.801 | 0.639 | 0.641 | 0.625 | 0.43 | 0.443 | 0.464 | 0.465 |
| NCI-H1395 | 0.578 | 0.711 | 0.512 | 0.486 | 1.02 | 0.945 | 0.967 | 0.667 | 0.77 | 0.81 | 0.714 | 0.561 | 0.823 | 0.594 | 0.698 | 0.516 | 0.459 | 0.459 | 0.488 | 0.523 |
| NCI-H1437 | 0.413 | 0.514 | 0.406 | 0.314 | 0.527 | 0.609 | 0.492 | 0.33 | 0.393 | 0.437 | 0.387 | 0.277 | 0.967 | 1 | 0.856 | 0.864 | 0.373 | 0.285 | 0.298 | 0.372 |
